In paper PMC6572573, “Development of a Ternary Solid Dispersion Formulation of LW6 to Improve the In Vivo Activity as a BCRP Inhibitor: Preparation and In Vitro/In Vivo Characterization” (Pharmaceutics, 2019):

What was measured:
[1] = Apparent aqueous solubility of LW6 formulations (HPLC); assay type: physicochemical; details: water
Description: For the selection of optimal carriers, SDs of LW6 were prepared with various hydrophilic polymers at a drug–carrier ratio of 1:5 using the solvent evaporation method. Briefly, LW6 was dissolved in dichloromethane by sonication for 10 min for complete solubilization. Each polymeric carrier was dissolved in dichloromethane and added to the drug solution. After vigorous mixing, all the solvents were eliminated under vacuum at room temperature. The resulting product was milled and sieved through an 80-mesh screen. The corresponding physical mixtures (PMs) were also prepared by mixing LW6 and each carrier with a mortar and pestle. The carrier that enhanced the LW6 solubility to the greatest extent was selected for preparing the ternary SD formulations of LW6. The effect of surfactants on the solubility of LW6 was also determined using a 10% aqueous solution of various surfactants.
Each formulation equivalent to 1 mg of LW6 was dissolved in 1 mL of distilled water and stirred at 300 rpm for 48 h at room temperature. […] The drug concentration in each filtrate was measured by HPLC assay.
HPLC assay for LW6: The concentrations of LW6 from in vitro samples were determined using a HPLC system (Perkin Elmer series 200, Waltham, MA, USA) consisting of a UV detector, a pump, and an automatic injector. […]

[2] = In vitro drug release (dissolution) studies; assay type: physicochemical; details: 37 °C, 100 rpm
Description: The drug release profiles of each formulation were examined at different pH conditions (1.2, 4.0, and 6.8). Each formulation (drug amount equivalent to 1 mg of LW6) was dispersed in different release media (10 mL) and stirred at 100 rpm, 37 °C. At predetermined time points (10, 20, 30, 45, and 60 min), the samples were collected and filtered through a 0.45-µm pore-sized cellulose syringe filters. The drug concentration in each filtrate was determined by HPLC assay.
HPLC assay for LW6: The concentrations of LW6 from in vitro samples were determined using a HPLC system (Perkin Elmer series 200, Waltham, MA, USA) consisting of a UV detector, a pump, and an automatic injector. A reversed-phase C18 column (Gemini C18, 4.6 × 150 mm, 5 µm; Phenomenex, Torrance, CA, USA) was eluted with a mobile phase consisting of acetonitrile and 0.1% formic acid (80:20, v/v). The flow rate was 1.0 mL/min at 30 °C, and the UV wavelength was set at 254 nm. Valsartan was used as an internal standard, and the calibration curve of LW6 was linear (r^2 = 0.99) within the concentration range of 0.05 to 100 µg/mL.

BCRP = molecular target: T1, BCRP (Rattus norvegicus, UniProt Q80W57); test: Oral pharmacokinetics of topotecan (BCRP substrate) in rats with/without co-administered LW6 formulations; assay type: in vivo
T1 construct: from tissue; host or cells: living male Sprague-Dawley rats (intestine)
T1 sequence (Q80W57 1-657): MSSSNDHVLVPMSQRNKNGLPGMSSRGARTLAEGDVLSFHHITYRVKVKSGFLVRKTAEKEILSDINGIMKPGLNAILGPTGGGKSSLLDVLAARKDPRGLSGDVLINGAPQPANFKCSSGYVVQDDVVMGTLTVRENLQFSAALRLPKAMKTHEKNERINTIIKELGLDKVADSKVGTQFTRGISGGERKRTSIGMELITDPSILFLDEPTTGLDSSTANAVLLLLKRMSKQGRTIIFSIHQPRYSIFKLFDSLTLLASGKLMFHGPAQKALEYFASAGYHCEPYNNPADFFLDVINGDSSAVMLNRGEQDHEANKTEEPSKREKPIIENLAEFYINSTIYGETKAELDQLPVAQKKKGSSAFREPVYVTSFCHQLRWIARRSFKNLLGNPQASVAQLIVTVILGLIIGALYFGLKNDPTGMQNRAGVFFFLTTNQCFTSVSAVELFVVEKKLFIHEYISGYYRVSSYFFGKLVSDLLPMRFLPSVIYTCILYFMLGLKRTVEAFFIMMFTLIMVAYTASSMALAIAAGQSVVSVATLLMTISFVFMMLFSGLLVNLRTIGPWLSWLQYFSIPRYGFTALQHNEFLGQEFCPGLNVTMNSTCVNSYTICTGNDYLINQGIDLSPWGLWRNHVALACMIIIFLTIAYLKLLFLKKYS
Description: The pharmacokinetic profiles of topotecan, which is a representative BCRP substrate, were examined in rats with/without the co-administration of LW6 in different formulations. Animal studies were carried out in accordance with the “Guiding Principles in the Use of Animals in Toxicology” adopted by the Society of Toxicology (USA), and the study protocol was approved by the review committee of Dongguk University (IACUC-2017-016-2). Male Sprague–Dawley rats (260–280 g) were provided by Orient bio Co., Ltd. (Seongnam, Korea). All the rats were given free access to tap water and a normal standard chow diet (Superfeed Company, Wonju, Korea). The rats were fasted for 18 h before the experiments, and divided into three groups (n = 3 per group). The pure drug or SD (equivalent to 20 mg/kg of LW6) was suspended in 0.5% aqueous methylcellulose with 5% polyethylene glycol (PEG) and topotecan (10 mg/kg) was dissolved in saline. Each formulation was given orally to the three groups of rats (group 1, topotecan only; group 2, topotecan + pure LW6; group 3, topotecan + SD of LW6). Blood samples were obtained from the femoral artery at the predetermined time points. The blood samples were centrifuged at 13,000 rpm for 5 min, and the obtained plasma samples were frozen at −20 °C until analyzed by liquid chromatography-tandem mass spectrometry (LC-MS/MS).
LC-MS/MS assay for topotecan: The concentration of topotecan in rat plasma was determined using LC-MS/MS assay as reported by Ye et al.. Briefly, 100 µL of plasma, 20 µL of the internal standard camptothecin (1 µg/mL), and 180 µL of methanol were mixed vigorously, and then centrifuged at 13,000 rpm for 5 min. After centrifugation, 240 µL of the supernatant was collected and dried under vacuum. After complete drying, the residue was re-dispersed in methanol and analyzed by LC-MS/MS. Chromatographic separation was done with a C18 column (4.6 × 100 mm, 2.6 μm; Phenomenex, Torrance, CA, USA) using a mobile phase consisting of acetonitrile and 0.1% formic acid (80:20, v/v) at a flow rate of 0.4 mL/min. Mass spectrometric detection was done using the AB Sciex API 4000 triple quadrupole mass spectrometer (AB Sciex, Framingham, MA, USA). The electrospray ionization (ESI) source was set in positive ionization mode. The precursor/product ion pair (m/z) was 422.2/377.1 for topotecan and 349.1/305.2 for camptothecin (IS). The calibration curve was prepared at concentrations of 1 to 1000 ng/mL with a good linearity of r^2 value greater than 0.99.
Based on the noncompartmental analysis, the area under the plasma concentration–time curve (AUC) was calculated using the linear trapezoidal method. The peak plasma concentration (Cmax) and the time to reach the peak plasma concentration (Tmax) were values recorded from the experimental data.

[3] = test system: breast cancer resistance protein (BCRP); set-up: method as in PMID 27520631; details: previous reports ref 4; cited from earlier work
[4] = male, Sprague-Dawley, rat, plasma, oral topotecan 10 mg/kg, with or without LW6 20 mg/kg (pure or F8-SD), mean ± SD (n = 3)

SMILES	Aqueous solubility of pure LW6 (in words) [1]	Drug release within 20 min ([2]; acidic to neutral pH range (pH 1.2, 4.0, 6.8))	Drug release within 1 h ([2]; water)	Increase in oral (systemic) exposure of topotecan by coadministration (BCRP; oral topotecan 10 mg/kg + LW6 20 mg/kg equivalent, versus topotecan only)	BCRP inhibitory potency compared with typical BCRP inhibitor [3]	AUC (BCRP; [4]) [ng·h/mL]	Cmax (BCRP; [4]) [ng/mL]	Tmax (BCRP; [4]) [h]	half-life (BCRP; male, Sprague-Dawley, rat, plasma, oral topotecan 10 mg/kg, with or without LW6 20 mg/kg (pure or F8-SD), mean ± SD (n = 3), read-out: T1/2 of topotecan (converted)) [h]
COC(=O)c1ccc(O)c(NC(=O)COc2ccc(C34CC5CC(CC(C5)C3)C4)cc2)c1 [LW6, 3-[2-(4-adamantan-1-yl-phenoxy)-acetylamino]-4-hydroxy-benzoic acid methyl ester]	practically insoluble	negligible	minimal	approximately threefold	more potent than Kol43				
CC[C@@]1(O)C(=O)OCc2c1cc1n(c2=O)Cc2cc3c(CN(C)C)c(O)ccc3nc2-1 [Topotecan, topotecan]						204 ± 11.1	31.3 ± 7.1	0.4 ± 0.1	2 ± 0.4
